US11535598B2, “Histone deacetylases (HDACs) inhibitors” (ANNJI PHARMACEUTICAL CO., LTD., priority 2017, dated 2022)

Columns and labels:
[1] = in vitro; details: monkey, Vero normal cells
Experimental: (§5) Cells were seeded in 96-well plates at a density of 5×10^3 cells per well and allowed to attach for 24 h before compound treatment. […] At end of the treatment period 72 h, 20 μl (5 mg/mL) 3-(4,5-dimethylthiazol-2-yl)-2,5-diphenyl-tetrazolium bromide (MTT) reagent was added each well. After 4 h incubation at 37° C., the supernatant was aspirated and the formazan crystals were dissolved in 100 μl of DMSO at 37° C. for 10 min with gentle agitation. The absorbance was measured at 570 nm using the Molecular Devices Microplate Reader. […] IC50 values were calculated from the relative viability values and concentrations by regression analysis.

[2] = biological target: Human HDAC6 (Homo sapiens (Human), UniProt Q9UBN7); assay: HDAC enzymatic assay, HDAC6; format: biochemical; details: 10-dose IC50 mode with a 3-fold serial dilution; read-out: HDAC subtypes IC50 HDAC6
Experimental: (§1) The IC50 values for aforementioned compounds against HDACs were determined. HDAC 1 to 11 can be assayed by using acetylated AMC-labeled peptide substrate.
(§2) Human HDAC1 GenBank Accession No. NM_004964): Full length with C-terminal GST tag, MW=79.9 kDa, Human HDAC2 (GenBank Accession No. Q92769): Full length with C-terminal His tag, MW=60 kDa. Human HDAC3/NcoR2 (GenBank Accession No. […] for HDAC3, GenBank Accession No. NM_006312 for NcoR2): Complex of human HDAC3, full length with C-terminal His tag, MW=49.7 kDa, and human NCOR2, N-terminal GST tag, MW=39 kDa. Human HDAC6 (GenBank Accession No. BC069243): Full length with N-terminal GST tag, MW=159 kDa. Human HDAC8 (GenBank Accession No. NM018486): Full length, MW=42 kDa, expressed in an E. coli expression system.
(§3) Human HDAC1, Human HDAC2, Human HDAC3/NcoR2, Human HDAC6, Human HDAC10, and Human HDAC11 were all expressed by baculovirus expression system in Sf9 cells.
(§4) 50 μM HDAC substrate. 1% DMSO final. Incubation for 2 hours at 30° C.

[3] = test system: HL60; assay: Cell proliferation assay MTT, HL60; details: read-out: Cytotoxicity IC50 Leukemia HL60, 72 hr treated
Experimental: as §5

[4] = test system: HepG2; assay: Cell proliferation assay MTT, HepG2; details: read-out: Cytotoxicity IC50 Liver HepG2, 72 hr treated
Experimental: as §5

[5] = test system: PANC1; assay: Cell proliferation assay MTT, PANC1; details: read-out: Cytotoxicity IC50 Pancreas PANC1, 72 hr treated
Experimental: as §5

[6] = biological target: Human HDAC1 (Homo sapiens (Human), UniProt Q13547); assay: HDAC enzymatic assay, HDAC1; format: biochemical; details: 10-dose IC50 mode with a 3-fold serial dilution; read-out: HDAC subtypes IC50 HDAC1
Chain of Human HDAC1 (Q13547 whole entry): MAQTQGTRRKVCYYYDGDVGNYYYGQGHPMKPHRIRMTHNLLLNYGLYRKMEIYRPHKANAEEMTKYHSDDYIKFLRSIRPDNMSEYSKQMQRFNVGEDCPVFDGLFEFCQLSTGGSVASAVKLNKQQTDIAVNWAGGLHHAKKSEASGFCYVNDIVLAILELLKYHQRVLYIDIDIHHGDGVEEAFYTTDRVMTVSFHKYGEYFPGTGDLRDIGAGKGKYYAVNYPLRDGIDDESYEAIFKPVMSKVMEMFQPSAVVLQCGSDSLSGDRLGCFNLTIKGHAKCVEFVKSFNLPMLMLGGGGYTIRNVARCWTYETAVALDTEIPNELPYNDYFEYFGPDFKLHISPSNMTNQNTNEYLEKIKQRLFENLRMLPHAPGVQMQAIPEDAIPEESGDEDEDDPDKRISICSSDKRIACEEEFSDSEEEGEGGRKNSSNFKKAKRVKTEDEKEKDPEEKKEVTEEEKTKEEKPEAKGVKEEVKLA
Experimental: as §1, §2, §3, §4

[7] = test system: LNCap; assay: Cell proliferation assay MTT, LNCaP; details: read-out: Cytotoxicity IC50 Prostate LNCap, 72 hr treated
Experimental: as §5

[8] = test system: U87MG; assay: Cell proliferation assay MTT, U87MG; details: read-out: Cytotoxicity IC50 Glioblastoma U87MG, 72 hr treated
Experimental: as §5

[9] = test system: MV4-11; assay: Cell proliferation assay MTT, MV4-11; details: read-out: Cytotoxicity IC50 Leukemia MV4-11; MTT assay, 72 hr treated
Experimental: as §5

[10] = in vitro; details: human, FHs173We normal cells
Experimental: as §5

[11] = test system: A549; assay: Cell proliferation assay MTT, A549; details: read-out: Cytotoxicity IC50 Lung A549, 72 hr treated
Experimental: as §5

[12] = biological target: Human HDAC11 (Homo sapiens (Human), UniProt Q96DB2); assay: HDAC enzymatic assay, HDAC11; format: biochemical; details: 10-dose IC50 mode with a 3-fold serial dilution; read-out: HDAC subtypes IC50 HDAC11
Chain of Human HDAC11 (Q96DB2 whole entry): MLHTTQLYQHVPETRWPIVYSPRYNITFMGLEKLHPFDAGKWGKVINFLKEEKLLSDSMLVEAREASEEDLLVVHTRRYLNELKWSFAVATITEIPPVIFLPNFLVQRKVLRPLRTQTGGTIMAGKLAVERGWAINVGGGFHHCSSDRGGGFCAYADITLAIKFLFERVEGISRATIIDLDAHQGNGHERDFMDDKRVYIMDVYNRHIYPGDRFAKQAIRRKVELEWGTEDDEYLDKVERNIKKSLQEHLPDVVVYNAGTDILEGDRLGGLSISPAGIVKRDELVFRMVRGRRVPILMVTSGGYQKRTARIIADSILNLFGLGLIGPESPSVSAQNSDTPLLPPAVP
Experimental: as §1, §2, §3, §4

[13] = biological target: Human HDAC8 (Homo sapiens (Human), UniProt Q9BY41); assay: HDAC enzymatic assay, HDAC8; format: biochemical; details: 10-dose IC50 mode with a 3-fold serial dilution; read-out: HDAC subtypes IC50 HDAC8
Chain of Human HDAC8 (Q9BY41 whole entry): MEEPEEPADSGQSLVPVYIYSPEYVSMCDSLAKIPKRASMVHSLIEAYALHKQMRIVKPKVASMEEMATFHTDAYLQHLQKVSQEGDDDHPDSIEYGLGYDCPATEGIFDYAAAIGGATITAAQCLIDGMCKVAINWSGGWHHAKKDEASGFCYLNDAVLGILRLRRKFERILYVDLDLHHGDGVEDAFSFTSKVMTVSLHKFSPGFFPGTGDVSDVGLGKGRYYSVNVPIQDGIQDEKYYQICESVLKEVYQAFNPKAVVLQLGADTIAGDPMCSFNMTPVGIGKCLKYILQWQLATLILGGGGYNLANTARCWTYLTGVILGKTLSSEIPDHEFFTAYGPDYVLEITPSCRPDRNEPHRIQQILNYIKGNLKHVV
Experimental: as §1, §2, §4

[14] = test system: MOLM13; assay: Cell proliferation assay MTT, MOLM13; details: read-out: Cytotoxicity IC50 Leukemia MOLM13; MTT assay, 72 hr treated
Experimental: as §5

[15] = test system: Vero; assay: Cell proliferation assay MTT, Vero normal cells; details: read-out: Cytotoxicity IC50 Monkey normal Vero, 72 hr treated
Experimental: as §5

[16] = test system: FHsWe; assay: Cell proliferation assay MTT, FHsWe normal cells; details: read-out: Cytotoxicity IC50 Human normal FHsWe, 72 hr treated
Experimental: as §5

Chain of Human HDAC6 (Q9UBN7 whole entry): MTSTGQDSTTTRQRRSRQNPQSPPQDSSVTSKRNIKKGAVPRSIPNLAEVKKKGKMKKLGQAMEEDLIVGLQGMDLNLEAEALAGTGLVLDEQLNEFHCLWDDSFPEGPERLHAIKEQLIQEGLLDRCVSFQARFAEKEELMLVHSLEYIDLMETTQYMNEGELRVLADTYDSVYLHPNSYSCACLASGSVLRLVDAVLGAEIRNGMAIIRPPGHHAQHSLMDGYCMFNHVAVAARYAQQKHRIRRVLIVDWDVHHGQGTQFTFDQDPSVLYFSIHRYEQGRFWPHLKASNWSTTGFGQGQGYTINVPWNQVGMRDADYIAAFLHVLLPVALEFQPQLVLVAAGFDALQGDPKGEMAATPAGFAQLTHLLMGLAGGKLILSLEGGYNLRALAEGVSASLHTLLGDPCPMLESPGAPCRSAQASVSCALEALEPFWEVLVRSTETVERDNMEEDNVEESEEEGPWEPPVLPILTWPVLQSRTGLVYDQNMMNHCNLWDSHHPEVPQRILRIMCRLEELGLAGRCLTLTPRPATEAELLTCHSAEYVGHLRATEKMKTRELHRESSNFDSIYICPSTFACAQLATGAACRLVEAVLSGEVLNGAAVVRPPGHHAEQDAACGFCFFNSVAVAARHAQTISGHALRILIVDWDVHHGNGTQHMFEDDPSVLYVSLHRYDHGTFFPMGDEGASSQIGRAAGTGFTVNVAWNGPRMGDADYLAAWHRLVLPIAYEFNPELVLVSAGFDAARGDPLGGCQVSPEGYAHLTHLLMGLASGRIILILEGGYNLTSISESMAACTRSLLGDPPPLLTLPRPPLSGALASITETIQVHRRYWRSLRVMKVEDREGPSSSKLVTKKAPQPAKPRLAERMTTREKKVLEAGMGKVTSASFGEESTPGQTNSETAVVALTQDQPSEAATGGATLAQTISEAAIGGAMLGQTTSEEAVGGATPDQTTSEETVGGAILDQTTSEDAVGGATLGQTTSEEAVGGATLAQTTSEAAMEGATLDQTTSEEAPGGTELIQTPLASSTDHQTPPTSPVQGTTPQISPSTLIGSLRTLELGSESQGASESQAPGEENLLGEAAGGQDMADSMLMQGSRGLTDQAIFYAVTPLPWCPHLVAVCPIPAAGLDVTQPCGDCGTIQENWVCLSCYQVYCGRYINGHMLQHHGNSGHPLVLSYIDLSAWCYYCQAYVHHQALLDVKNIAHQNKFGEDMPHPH

Row | Structure (SMILES) | IC50 at 72 h [1] [µM] | IC50 [2] [µM] | IC50 [3] [µM] | IC50 [4] [µM] | IC50 [5] [µM] | IC50 [6] [µM] | IC50 [7] [µM] | IC50 [8] [µM] | IC50 [9] [µM] | IC50 at 72 h [10] [µM] | IC50 [11] [µM] | IC50 [12] [µM] | IC50 [13] [µM] | IC50 [14] [µM] | IC50 [15] [µM] | IC50 [16] [µM]
1 | O=C(NO)c1ccc(Cn2c(=O)n(CCc3ccccc3)c(=O)c3ccccc32)cc1 [Compound 5, 4-((2,4-dioxo-3-phenethyl-3,4-dihydroquinazolin-1(2H)-yl)methyl)-N-hydroxybenzamide] | 91.38 ± 0.47 | 0.004 | 0.25 ± 0.03 | 1.93 ± 0.25 | 4.15 ± 0.27 | 11.2 | 0.44 ± 0.07 | 1.56 ± 0.14 | 0.17 ± 0.05 | 83.21 ± 0.62 | 3.75 ± 0.39 | 13.9 | 0.376 | 0.16 ± 0.03 | – | –
2 | O=C(NO)c1ccc(Cn2c(=O)n(CCc3ccccc3)c(=O)c3ccc(C(F)(F)F)cc32)cc1 [Compound 13, 4-((2,4-dioxo-3-phenethyl-7-(trifluoromethyl)-3,4-dihydroquinazolin-1(2H)-yl)methyl)-N-hydroxybenzamide] | 146.2 ± 0.41 | 0.635 | 0.87 ± 0.12 | 5.48 ± 0.27 | 8.29 ± 0.43 | 8.02 | 5.92 ± 0.21 | 5.87 ± 0.14 | 0.83 ± 0.11 | 131.7 ± 0.25 | 7.22 ± 0.29 | 7.39 | 1.44 | 0.92 ± 0.07 | – | –
3 | O=C(CCCCCCC(=O)Nc1ccccc1)NO [SAHA, reference compound] | – | – | 1.85 ± 0.08 | – | – | – | – | – | – | – | – | – | – | – | 26.6 | –
4 | CN1CCc2c(c3ccccc3n2Cc2ccc(C(=O)NO)cc2)C1 [Tubastatin A, reference compound] | – | – | – | > 10 | > 10 | – | > 10 | > 10 | – | – | > 10 | – | – | – | 39.9 | 46.5
